Measured values taken from ChEMBL document CHEMBL3044888, “Fungicidal activity of indole derivatives against some plant pathogenic fungi” (J Pestic Sci, 2010).
In brackets after ≈: the same amount, converted by molar mass.

Legend:
Assay type in all cases: functional, organism-based
[1] = system: Fusarium culmorum; experiment: Fungicidal activity against Fusarium culmorum assessed as inhibition of hyphal growth by radial growth test
[2] = system: Globisporangium debaryanum; experiment: Fungicidal activity against Pythium debaryanum assessed as inhibition of hyphal growth by radial growth test
[3] = system: Rhizoctonia solani; experiment: Fungicidal activity against Rhizoctonia solani assessed as inhibition of hyphal growth by radial growth test
[4] = system: Macrophomina phaseolina; experiment: Fungicidal activity against Macrophomina phaseoli assessed as inhibition of hyphal growth by radial growth test

| Structure (SMILES) | IC50 [1] [µg/mL] | IC50 [2] [µg/mL] | IC50 [3] [µg/mL] | IC50 [4] [µg/mL] |
| --- | --- | --- | --- | --- |
| COCC(=O)N(c1c(C)cccc1C)C(C)C(=O)OC (stereo not drawn) [METALAXYL] | 192 (≈ 687 µM) | 211 (≈ 755 µM) | 231 (≈ 827 µM) | 173 (≈ 619 µM) |
| O=C(O)CCCc1c[nH]c2ccccc12 | 576 (≈ 2830 µM) | 249 (≈ 1230 µM) | 644 (≈ 3170 µM) | 699 (≈ 3440 µM) |
| O=C(O)Cc1cn(C(=O)c2ccccc2)c2ccccc12 | 523 (≈ 1870 µM) | 171 (≈ 612 µM) | 1240 (≈ 4450 µM) | 572 (≈ 2050 µM) |
| CC(=O)n1cc(CCCC(=O)O)c2ccccc21 | 26.6 (≈ 108 µM) | 19 (≈ 77.5 µM) | 117 (≈ 477 µM) | 59 (≈ 241 µM) |
| O=C(c1ccccc1)n1c(-c2ccccc2)cc2ccccc21 | 99.9 (≈ 336 µM) | 81 (≈ 272 µM) | 122 (≈ 411 µM) | 355 (≈ 1190 µM) |
| O=C(O)Cc1c[nH]c2ccccc12 [INDOLE-3-ACETIC ACID] | 420 (≈ 2400 µM) | 301 (≈ 1720 µM) | 1010 (≈ 5760 µM) | 807 (≈ 4610 µM) |
| O=C(O)CCCc1cn(C(=O)c2ccccc2)c2ccccc12 | 513 (≈ 1670 µM) | 488 (≈ 1590 µM) | 663 (≈ 2160 µM) | 448 (≈ 1460 µM) |
